This is an account of results in PMC10455244, “Alpha-Mangostin: A Potent Inhibitor of TRPV3 and Pro-Inflammatory Cytokine Secretion in Keratinocytes” (International Journal of Molecular Sciences, 2023).

The test addresses T1, TRPV3 (Homo sapiens, UniProt Q8NET8).
T1 sequence (Q8NET8 1-790): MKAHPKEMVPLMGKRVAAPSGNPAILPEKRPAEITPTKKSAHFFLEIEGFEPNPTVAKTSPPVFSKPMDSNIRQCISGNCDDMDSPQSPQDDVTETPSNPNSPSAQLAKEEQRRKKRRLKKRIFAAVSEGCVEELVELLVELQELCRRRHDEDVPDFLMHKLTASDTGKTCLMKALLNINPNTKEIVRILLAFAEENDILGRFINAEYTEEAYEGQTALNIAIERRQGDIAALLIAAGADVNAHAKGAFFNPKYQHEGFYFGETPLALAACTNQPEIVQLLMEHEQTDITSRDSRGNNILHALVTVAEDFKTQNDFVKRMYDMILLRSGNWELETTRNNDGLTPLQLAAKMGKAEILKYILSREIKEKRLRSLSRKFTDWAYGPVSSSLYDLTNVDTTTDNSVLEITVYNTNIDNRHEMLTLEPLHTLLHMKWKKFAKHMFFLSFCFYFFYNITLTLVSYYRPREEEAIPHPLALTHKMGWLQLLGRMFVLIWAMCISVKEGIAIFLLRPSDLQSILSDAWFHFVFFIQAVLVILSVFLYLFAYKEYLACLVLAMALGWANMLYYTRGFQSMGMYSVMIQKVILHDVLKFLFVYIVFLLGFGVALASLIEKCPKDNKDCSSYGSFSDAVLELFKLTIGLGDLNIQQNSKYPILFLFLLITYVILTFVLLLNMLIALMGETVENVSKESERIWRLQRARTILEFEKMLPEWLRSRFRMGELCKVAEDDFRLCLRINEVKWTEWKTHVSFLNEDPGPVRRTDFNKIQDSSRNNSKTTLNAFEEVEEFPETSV
Nature of the test: Whole-cell patch-clamp, 2-APB-evoked TRPV3 current in hTRPV3-overexpressing HEK 293T cells. The test is classed as cell-based. On the set-up: expressed in transfected cells. An excerpt: First, we used a conventional whole-cell patch-clamp to record the TRPV3 current in HEK 293T cells overexpressing hTRPV3. Then, different concentrations of alpha-mangostin were perfused into the cells to determine the effects of alpha-mangostin on the TRPV3 current. Alpha-mangostin inhibited 2-APB-evoked TRPV3 current, as shown in a representative cell in Figure 1A.
Figure 1 Alpha-mangostin (α-MG) inhibited the TRPV3 current. […] (A) Alpha-mangostin inhibited 2-APB-evoked current in a representative TRPV3 overexpressing HEK 293T cell. The channel was activated using 100 µM 2-APB and subsequently perfused with solutions containing different concentrations of alpha-mangostin with 100 µM 2-APB. A solution containing 10 µM ruthenium red (RR, a TRP channel inhibitor) and 100 µM 2-APB was perfused at the end. […] Currents were normalized to the maximum response to 2-APB at −100 mV. (C) Alpha-mangostin inhibited carvacrol-evoked current in a representative TRPV3-overexpressing HEK 293T cell. TRPV3 was activated using 1000 µM carvacrol and subsequently perfused with solutions containing different concentrations of alpha-mangostin with 1000 µM carvacrol. A solution containing 10 µM RR and 1000 µM carvacrol was perfused at the end. (D) Summary of normalized currents evoked by carvacrol with or without alpha-mangostin at −100 mV. Currents were normalized to the maximum response carvacrol at −100 mV. (E) Alpha-mangostin inhibited 2-APB-evoked current in NHEK. The channel was activated using 100 µM 2-APB and subsequently perfused with solutions containing different concentrations of alpha-mangostin with 100 µM 2-APB. A solution containing 10 µM 74a (a TRPV3 inhibitor) and 100 µM 2-APB was perfused at the end. […] The right panel summarizes normalized currents evoked by 2-APB with or without alpha-mangostin at −100 mV. Currents were normalized to the maximum response to 2-APB at −100 mV. Data are presented as means ± SEM. ** p < 0.01, *** p < 0.001, **** p < 0.0001.
HEK 293T cells were purchased from the American Type Culture Collection (Cat. No. CRL-3216, ATCC, Manassas, VA, USA). TRPV3-overexpressing HEK 293T cells were supplied by Prof. Wan Lee (Dongguk University College of Medicine, Gyeongju, South Korea). HEK 293T cells expressing TRPV3 mutants (G573S, G573C), TRPV4, TRPA1 were made by transient transfection. These cells were cultured in Dulbecco’s modified Eagle’s medium (DMEM, Welgene, Daegu, Korea) containing 10% fetal bovine serum (FBS; Welgene) and 1% penicillin/streptomycin (P/S; Life Technologies, Carlsbad, CA, USA). […]
[…] Sampling at 10 kHz and low-pass filtering at 5 kHz (w-c) were applied for all recorded currents. Recorded data were analyzed using Clampfit ver. […]
For orientation: Patch clamp records ionic current or voltage across a cell membrane.

In general, inhibition refers to the percentage by which the read-out fell short of the control. A word on the IC50: it is the point on the concentration scale where inhibition reaches its midpoint.

For the molecule `COc1c(O)cc2oc3cc(O)c(CC=C(C)C)c(O)c3c(=O)c2c1CC=C(C)C` [Alpha-mangostin], the “Inhibition of 2-APB-evoked TRPV3 currents” value (10 µM, 100 µM 2-APB, −100 mV, similar level to 10 µM ruthenium red) is given as “almost completely inhibited”. Where the note is “HEK-293T, 0.3 µM, −100 mV, read-out: Inhibition percentage of TRPV3 current”, the inhibition at 0.3 µM came to 76.6%. For the same molecule, where the note is “hTRPV3-overexpressing HEK 293T, 100 µM 2-APB, at −100 mV, read-out: IC50, inhibition of 2-APB-induced TRPV3 current”, the IC50 was determined as 77 ± 13 nM. In addition, the “Reversibility of inhibitory effect on TRPV3 current” value (wash out, 100 µM 2-APB, −60 mV holding potential) is “partly reversible”.
